What was measured:
TrkA = TrkA (Homo sapiens (Human), UniProt P04629); assay: TrkA activity, off-chip mobility shift assay (LabChip 3000); assay type: biochemical; details: 55 μM ATP (ATP Km); n/d = none detected
Text: (§1) Reagents and consumables were purchased from Sigma Aldrich, Carna Biosciences, or Caliper Life Sciences. All assay reaction conditions for IC50 determinations were within the linear range with respect to time and enzyme concentration. […] The LabChip 3000 separates and measures the fluorescent signal of fluorescein labeled peptide substrate and fluorescein labeled peptide product present in each well. Results are expressed as percent conversion by measuring peak height for both the substrate and product and dividing the product peak height by the sum of peak heights for both substrate and product.

TrkB = TrkB (Homo sapiens (Human), UniProt Q16620); assay: TrkB activity, off-chip mobility shift assay (LabChip 3000); assay type: biochemical; details: 70 μM ATP (ATP Km); n/d = none detected
Text: as §1

Sequence of TrkB (Q16620 32-822): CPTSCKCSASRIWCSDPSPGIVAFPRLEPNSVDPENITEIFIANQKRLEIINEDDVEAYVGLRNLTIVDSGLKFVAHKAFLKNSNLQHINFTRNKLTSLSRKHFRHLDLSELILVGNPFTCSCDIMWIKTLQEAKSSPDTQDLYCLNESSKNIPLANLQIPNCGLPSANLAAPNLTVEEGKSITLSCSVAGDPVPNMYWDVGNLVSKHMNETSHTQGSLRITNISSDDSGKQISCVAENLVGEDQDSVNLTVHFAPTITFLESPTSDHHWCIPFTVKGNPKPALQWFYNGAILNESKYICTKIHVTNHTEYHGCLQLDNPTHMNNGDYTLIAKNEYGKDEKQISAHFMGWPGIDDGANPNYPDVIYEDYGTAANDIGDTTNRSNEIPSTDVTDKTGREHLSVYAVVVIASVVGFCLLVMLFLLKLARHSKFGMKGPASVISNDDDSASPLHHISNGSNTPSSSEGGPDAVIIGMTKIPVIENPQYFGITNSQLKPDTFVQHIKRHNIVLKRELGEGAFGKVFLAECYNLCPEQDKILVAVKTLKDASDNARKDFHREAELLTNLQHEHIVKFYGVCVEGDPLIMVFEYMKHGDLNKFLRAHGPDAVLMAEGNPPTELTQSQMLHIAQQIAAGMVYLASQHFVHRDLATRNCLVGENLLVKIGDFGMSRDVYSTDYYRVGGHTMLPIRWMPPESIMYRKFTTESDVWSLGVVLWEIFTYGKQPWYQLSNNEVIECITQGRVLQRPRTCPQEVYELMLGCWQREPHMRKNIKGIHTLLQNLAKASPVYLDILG
Sequence of TrkA (P04629 33-796): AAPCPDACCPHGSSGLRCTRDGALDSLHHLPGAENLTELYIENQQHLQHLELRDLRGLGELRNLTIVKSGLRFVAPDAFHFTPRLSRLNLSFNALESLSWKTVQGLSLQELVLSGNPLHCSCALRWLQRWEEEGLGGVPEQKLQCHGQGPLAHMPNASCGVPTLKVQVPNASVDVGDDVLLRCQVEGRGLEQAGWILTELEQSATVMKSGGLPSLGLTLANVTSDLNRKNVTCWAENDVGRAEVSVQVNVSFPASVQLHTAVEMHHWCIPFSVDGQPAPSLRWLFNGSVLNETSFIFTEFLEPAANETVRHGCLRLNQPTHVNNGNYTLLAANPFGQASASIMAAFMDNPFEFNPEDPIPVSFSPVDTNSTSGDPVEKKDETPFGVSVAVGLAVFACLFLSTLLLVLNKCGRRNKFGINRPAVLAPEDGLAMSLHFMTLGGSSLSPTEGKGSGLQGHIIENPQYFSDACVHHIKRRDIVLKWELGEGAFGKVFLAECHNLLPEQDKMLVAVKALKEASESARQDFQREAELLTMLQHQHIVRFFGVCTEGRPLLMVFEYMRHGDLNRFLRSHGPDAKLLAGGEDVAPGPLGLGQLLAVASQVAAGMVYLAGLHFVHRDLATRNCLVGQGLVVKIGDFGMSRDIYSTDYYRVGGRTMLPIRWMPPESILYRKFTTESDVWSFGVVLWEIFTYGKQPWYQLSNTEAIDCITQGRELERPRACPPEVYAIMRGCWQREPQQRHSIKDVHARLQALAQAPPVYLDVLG

| IC50 (TrkA) | IC50 (TrkB) | SMILES |
| --- | --- | --- |
| 32 nM | 18 nM | COc1ccc(COc2ccc(Cn3cnc4cc(-n5cc(C6CCCNC6)nn5)cnc43)cc2OC)cn1 (centres unmarked) [Ex. 3-25, 3-(3-Methoxy-4-((6-methoxypyridin-3-yl)methoxy)benzyl)-6-(4-(piperidin-3-yl)-1H-1,2,3-triazol-1-yl)-3H-imidazo[4,5-b]pyridine] |
| 590 nM | 315 nM | COc1ccc(COc2ccc(Cn3c(N)nc4cc(N5CCN(C)CC5)ccc43)cc2OC)cn1 [Ex. 3-26, 1-(3-methoxy-4-((6-methoxypyridin-3-yl)methoxy)benzyl)-5-(4-methylpiperazin-1-yl)-1H-benzo[d]imidazol-2-amine] |
| 852 nM | 305 nM | COc1ccc(COc2cc(F)c(Cn3cnc4cc(N5CCN(C)CC5)ccc43)cc2OC)cn1 [Ex. 3-27, 1-(2-fluoro-5-methoxy-4-((6-methoxypyridin-3-yl)methoxy)benzyl)-5-(4-methylpiperazin-1-yl)-1H-benzo[d]imidazole] |
| 6020 nM | 4280 nM | COc1ccc(COc2ccc(Cn3cnc4cc(N5CCN(C)CC5=O)ccc43)cc2OC)cn1 [Ex. 3-29, 1-(1-(3-Methoxy-4-((6-methoxypyridin-3-yl)methoxy)benzyl)-1H-benzo[d]imidazol-5-yl)-4-methylpiperazin-2-one] |
| 201 nM | 118 nM | COc1ccc(COc2ccc(Cn3cnc4cc(C5=CC6(C)CCCN5C6)cnc43)cc2OC)cn1 (centres unmarked) [Ex. 3-30, 3-(3-Methoxy-4-((6-methoxypyridin-3-yl)methoxy)benzyl)-6-(5-methyl-1-azabicyclo[3.2.1]oct-6-en-7-yl)-3H-imidazo[4,5-b]pyridine] |
| 1480 nM | 889 nM | COc1ccc(COc2ccc(Cn3cnc4cc(C5=CC6(C)CCCN5C6)ccc43)cc2OC)cn1 (centres unmarked) [Ex. 3-31, 1-(3-methoxy-4-((6-methoxypyridin-3-yl)methoxy)benzyl)-5-(5-methyl-1-azabicyclo[3.2.1]oct-6-en-7-yl)-1H-benzo[d]imidazole] |
| 360 nM | 150 nM | COc1ccc(COc2ccc(Cn3cnc4cc(C5=CC6(O)CCCN5C6)cnc43)cc2OC)cn1 (centres unmarked) [Ex. 3-32, 7-(3-(3-methoxy-4-((6-methoxypyridin-3-yl)methoxy)benzyl)-3H-imidazo[4,5-b]pyridin-6-yl)-1-azabicyclo[3.2.1]oct-6-en-5-ol] |
| 1160 nM | 372 nM | COc1ccc(COc2ccc(Cn3cnc4cc(C5=CC6(O)CCCN5C6)ccc43)cc2OC)cn1 (centres unmarked) [Ex. 3-33, 7-(1-(3-Methoxy-4-((6-methoxypyridin-3-yl)methoxy)benzyl)-1H-benzo[d]imidazol-5-yl)-1-azabicyclo[3.2.1]oct-6-en-5-ol] |
| 0.6 nM | 0.3 nM | COc1ccc(COc2ccc(Cn3c(N)nc4cc(-c5cnn(C)c5)cnc43)cc2OC)cn1 [Ex. 3-35-1, 3-(3-methoxy-4-((6-methoxypyridin-3-yl)methoxy)benzyl)-6-(1-methyl-1H-pyrazol-4-yl)-3H-imidazo[4,5-b]pyridin-2-amine] |
| 0.2 nM | 0.2 nM | COc1cc(Cn2c(N)nc3cc(-c4cnn(C)c4)cnc32)ccc1OCc1ccc(C(F)(F)F)nc1 [Ex. 3-35-2, 3-(3-methoxy-4-((6-(trifluoromethyl)pyridin-3-yl)methoxy)benzyl)-6-(1-methyl-1H-pyrazol-4-yl)-3H-imidazo[4,5-b]pyridin-2-amine] |
| 0.2 nM | 0.3 nM | COc1cc(Cn2c(N)nc3cc(-c4cnn(C)c4)cnc32)ccc1OCc1ccc(C(F)(F)F)cc1 [Ex. 3-35-3, 3-(3-methoxy-4-((4-(trifluoromethyl)benzyl)oxy)benzyl)-6-(1-methyl-1H-pyrazol-4-yl)-3H-imidazo[4,5-b]pyridin-2-amine] |
| 0.2 nM | 0.2 nM | COc1cc(Cn2c(N)nc3cc(-c4cnn(C)c4)cnc32)ccc1OCc1ccc(C2CC2)nc1 [Ex. 3-35-4, 3-(4-((6-cyclopropylpyridin-3-yl)methoxy)-3-methoxybenzyl)-6-(1-methyl-1H-pyrazol-4-yl)-3H-imidazo[4,5-b]pyridin-2-amine] |
| 0.5 nM | 0.2 nM | COc1cc(Cn2c(N)nc3cc(-c4cnn(C)c4)cnc32)ccc1OCc1csc(C)n1 [Ex. 3-35-5, 3-(3-methoxy-4-((2-methylthiazol-4-yl)methoxy)benzyl)-6-(1-methyl-1H-pyrazol-4-yl)-3H-imidazo[4,5-b]pyridin-2-amine] |
| 6 nM | 4 nM | COc1ccc(COc2ccc(Cn3c(N)nc4cc(-c5ccccc5)cnc43)cc2OC)cn1 [Ex. 3-36, 3-(3-methoxy-4-((6-methoxypyridin-3-yl)methoxy)benzyl)-6-phenyl-3H-imidazo[4,5-b]pyridin-2-amine] |
| 9 nM | 4 nM | COc1ccc(COc2ccc(Cn3c(N)nc4cc(-c5ccc(F)cc5)cnc43)cc2OC)cn1 [Ex. 3-37-1, 6-(4-fluorophenyl)-3-(3-methoxy-4-((6-methoxypyridin-3-yl)methoxy)benzyl)-3H-imidazo[4,5-b]pyridin-2-amine] |
| 3 nM | 2 nM | COc1ccc(COc2ccc(Cn3c(N)nc4cc(-c5ccn(C)n5)cnc43)cc2OC)cn1 [Ex. 3-37-2, 3-(3-methoxy-4-((6-methoxypyridin-3-yl)methoxy)benzyl)-6-(1-methyl-1H-pyrazol-3-yl)-3H-imidazo[4,5-b]pyridin-2-amine] |
| 51 nM | 16 nM | COc1ccc(COc2ccc(Cn3c(N)nc4cc(-c5cncnc5)cnc43)cc2OC)cn1 [Ex. 3-37-3, 3-(3-methoxy-4-((6-methoxypyridin-3-yl)methoxy)benzyl)-6-(pyrimidin-5-yl)-3H-imidazo[4,5-b]pyridin-2-amine] |
| 14 nM | 13 nM | COc1ccc(COc2ccc(Cn3c(N)nc4cc(-c5c(C)nn(C)c5C)cnc43)cc2OC)cn1 [Ex. 3-37-4, 3-(3-methoxy-4-((6-methoxypyridin-3-yl)methoxy)benzyl)-6-(1,3,5-trimethyl-1H-pyrazol-4-yl)-3H-imidazo[4,5-b]pyridin-2-amine] |
| 2 nM | 0.7 nM | COc1ccc(COc2ccc(Cn3c(N)nc4cc(-c5ccncc5)cnc43)cc2OC)cn1 [Ex. 3-37-5, 3-(3-methoxy-4-((6-methoxypyridin-3-yl)methoxy)benzyl)-6-(pyridin-4-yl)-3H-imidazo[4,5-b]pyridin-2-amine] |
| 5 nM | 2 nM | COc1ccc(COc2ccc(Cn3c(N)nc4cc(-c5cccnc5)cnc43)cc2OC)cn1 [Ex. 3-37-6, 3-(3-methoxy-4-((6-methoxypyridin-3-yl)methoxy)benzyl)-6-(pyridin-3-yl)-3H-imidazo[4,5-b]pyridin-2-amine] |
| 4 nM | 2 nM | COc1ccc(COc2ccc(Cn3c(N)nc4cc(-c5ccccn5)cnc43)cc2OC)cn1 [Ex. 3-38, 3-(3-methoxy-4-((6-methoxypyridin-3-yl)methoxy)benzyl)-6-(pyridin-2-yl)-3H-imidazo[4,5-b]pyridin-2-amine] |
| 0.3 nM | 0.6 nM | COc1cc(Cn2c(N)nc3cc(-c4cnn(C)c4)cnc32)ccc1OCc1ccc(C(F)(F)C(F)(F)F)cc1 [Ex. 3-39, 3-(3-methoxy-4-((4-(perfluoroethyl)benzyl)oxy)benzyl)-6-(1-methyl-1H-pyrazol-4-yl)-3H-imidazo[4,5-b]pyridin-2-amine] |

Reference: US9067914B1, “Tropomyosin-related kinase (TRK) inhibitors” (Genzyme Corporation, priority 2013, dated 2015)
